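How tested: cells in 96-well plates exposed to compound for 48 hours at five concentrations. GI50 is the concentration that inhibits growth by half. The concentration for full growth arrest is given as TGI.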
How the values were obtained:
Assay in all cases: NCI anticancer screen, dose series, 48 h
[1] = tested on: HOP-92 NSCLC
[2] = tested on: SK-MEL-28 melanoma
[3] = tested on: NCI-H226 lung
[4] = tested on: HL-60(TB) leukemia
[5] = tested on: LOX IMVI melanoma
[6] = tested on: UACC-62 melanoma
[7] = tested on: OVCAR-8 ovarian
[8] = tested on: SF-539 CNS
[9] = tested on: DU-145 prostate
[10] = tested on: UO-31 renal
[11] = tested on: HT29 colon
[12] = tested on: SNB-19 CNS
[13] = tested on: MDA-MB-435
[14] = tested on: T-47D breast
[15] = tested on: TK-10 renal
[16] = tested on: SF-295 CNS
[17] = tested on: HCT-116 colon
[18] = tested on: SK-MEL-2 melanoma
[19] = tested on: OVCAR-3 ovarian
[20] = tested on: OVCAR-5 ovarian
[21] = tested on: COLO 205 colon
[22] = tested on: HOP-62 NSCLC
[23] = tested on: MOLT-4 leukemia
[24] = tested on: SW-620 colon
[25] = tested on: SR leukemia
[26] = tested on: 786-0 renal
[27] = tested on: BT-549 breast
[28] = tested on: HCC-2998 colon
[29] = tested on: RXF 393 renal
[30] = tested on: SNB-75 CNS
[31] = tested on: SN12C renal
[32] = tested on: NCI-H460 lung
[33] = tested on: CAKI-1 renal
[34] = tested on: MALME-3M melanoma
[35] = tested on: KM12 colon
[36] = tested on: CCRF-CEM leukemia
[37] = tested on: A498 renal
[38] = tested on: ACHN renal
[39] = tested on: OVCAR-4 ovarian
[40] = tested on: M14 melanoma
[41] = tested on: UACC-257 melanoma
[42] = tested on: SK-MEL-5 melanoma
[43] = tested on: SF-268 CNS
[44] = tested on: U251 CNS
[45] = tested on: IGROV1 ovarian
[46] = tested on: HCT-15 colon
[47] = tested on: SK-OV-3 ovarian
[48] = tested on: HS 578T breast
[49] = tested on: NCI-H23 lung
[50] = tested on: K-562 leukemia
[51] = tested on: RPMI-8226 leukemia
[52] = tested on: MDA-MB-231 breast
[53] = tested on: A549 NSCLC
[54] = tested on: EKVX NSCLC
[55] = tested on: MCF7 breast
[56] = tested on: PC-3 prostate
[57] = tested on: NCI/ADR-RES ovarian

C[n+]1c(/C=C\C=C\N2CCCCC2)sc2ccccc21
GI50 [1]: 75.8 nM
TGI [1]: 2160 nM
GI50 [2]: 552 nM
TGI [2]: 13400 nM
GI50 [3]: 1050 nM
TGI [3]: 22400 nM
GI50 [4]: 166 nM
TGI [4]: 737 nM
GI50 [5]: 481 nM
TGI [5]: 12900 nM
GI50 [6]: 691 nM
TGI [6]: 12400 nM
GI50 [7]: 384 nM
TGI [7]: 5010 nM
GI50 [8]: 1030 nM
TGI [8]: 15000 nM
GI50 [9]: 598 nM
TGI [9]: 17100 nM
GI50 [10]: 13500 nM
TGI [10]: > 71300 nM
GI50 [11]: 321 nM
TGI [11]: 11700 nM
GI50 [12]: 538 nM
TGI [12]: 17200 nM
GI50 [13]: 266 nM
TGI [13]: 1960 nM
GI50 [14]: 200 nM
TGI [14]: 2720 nM
GI50 [15]: 2190 nM
TGI [15]: 16500 nM
GI50 [16]: 385 nM
TGI [16]: 2360 nM
GI50 [17]: 308 nM
TGI [17]: > 32100 nM
GI50 [18]: 634 nM
TGI [18]: 14300 nM
GI50 [19]: 243 nM
TGI [19]: 5810 nM
GI50 [20]: 5200 nM
TGI [20]: > 35200 nM
GI50 [21]: 204 nM
TGI [21]: 454 nM
GI50 [22]: 2260 nM
TGI [22]: > 38200 nM
GI50 [23]: 401 nM
TGI [23]: 9420 nM
GI50 [24]: 513 nM
TGI [24]: 14900 nM
GI50 [25]: 105 nM
TGI [25]: 3080 nM
GI50 [26]: 2550 nM
TGI [26]: > 36600 nM
GI50 [27]: 261 nM
TGI [27]: 3500 nM
GI50 [28]: 451 nM
TGI [28]: 14100 nM
GI50 [29]: 3480 nM
TGI [29]: 17600 nM
GI50 [30]: 3930 nM
TGI [30]: 17000 nM
GI50 [31]: 716 nM
TGI [31]: 21200 nM
GI50 [32]: 489 nM
TGI [32]: 4370 nM
GI50 [33]: 4800 nM
TGI [33]: 28900 nM
GI50 [34]: 311 nM
TGI [34]: 2180 nM
GI50 [35]: 270 nM
TGI [35]: 3020 nM
GI50 [36]: 299 nM
TGI [36]: > 40500 nM
GI50 [37]: 293 nM
TGI [37]: 9040 nM
GI50 [38]: 4070 nM
TGI [38]: > 53400 nM
GI50 [39]: 479 nM
TGI [39]: > 42400 nM
GI50 [40]: 2820 nM
TGI [40]: > 35200 nM
GI50 [41]: 278 nM
TGI [41]: 2180 nM
GI50 [42]: 276 nM
TGI [42]: 1500 nM
GI50 [43]: 457 nM
TGI [43]: 14800 nM
GI50 [44]: 291 nM
TGI [44]: 15000 nM
GI50 [45]: 840 nM
TGI [45]: 33800 nM
GI50 [46]: 10900 nM
TGI [46]: 49200 nM
GI50 [47]: 794 nM
TGI [47]: 6790 nM
GI50 [48]: 1110 nM
TGI [48]: 22500 nM
GI50 [49]: 367 nM
TGI [49]: 18300 nM
GI50 [50]: 172 nM
TGI [50]: 12700 nM
GI50 [51]: 69.1 nM
TGI [51]: 1090 nM
GI50 [52]: 1010 nM
TGI [52]: 25600 nM
GI50 [53]: 413 nM
TGI [53]: 3070 nM
GI50 [54]: 255 nM
TGI [54]: 10800 nM
GI50 [55]: 346 nM
TGI [55]: 11800 nM
GI50 [56]: 237 nM
TGI [56]: 2970 nM
GI50 [57]: 37600 nM
TGI [57]: > 100000 nM

Reference: PubChem BioAssay (NCI)
